Measured values as given in article PMC7064771, “Repurposed Drugs That Block the Gonococcus-Complement Receptor 3 Interaction Can Prevent and Cure Gonococcal Infection of Primary Human Cervical Epithelial Cells” (mBio, 2020).
Where two headings read alike, the source gives them in different places.

Key:
human rI-domain = molecular target: T1, human rI-domain (Homo sapiens, UniProt P11215); assay: Surface plasmon resonance, immobilized human rI-domain; assay type: binding
T1 construct: Recombinant human and mouse I-domain proteins were made and purified as previously described; made in house
Protocol: (§1) SPR analyses were performed using a Biacore S200 system (GE Healthcare Life Sciences, Parramatta, NSW, Australia). Samples were analyzed at 25°C in phosphate-buffered saline (PBS) at a flow rate of 10 μl/min and by using single-cycle kinetics. Human rI-domain, mouse rI-domain, and human rCR3 were immobilized onto separate cells of a Series S CM5 sensor chip using an NHS capture kit (both from GE Healthcare Life Sciences) for purified pilin experiments. For experiments in which pilin-glycan-like structures were examined, human rI-domain and rCR3 were immobilized onto separate cells of a CM5 chip. A blank immobilization was used as a control/reference on all chips. MS11 wild-type and MS11 pglA pilin were serially diluted from 2 μM to 0.125 μM in PBS. Glycans (Dextra Laboratories, Reading, UK) (Table 2), resembling the gonococcal Gal(α1-3)diNAcBac pilin-linked glycan, were serially diluted from 2 μM to 0.0078 μM in PBS. Affinity data points were taken at 15 s after injection to avoid an artefactual signal resulting from bulk transport. SPR sensorgrams were analyzed using Biacore Evaluation software (GE Healthcare Life Sciences).

[1] = molecular target: T2, human rCR3 (integrin αMβ2) (Homo sapiens, UniProt P05107+P11215); assay: Surface plasmon resonance, immobilized human rCR3; assay type: binding
T2 construct: purchased R&D Systems
Protocol: as §1

[2] = tested on: N. gonorrhoeae adherence to Pex cells; assay: Fluorometric adherence assay, Pex cells; assay type: cell-based, human; details: 1-h infection with GFP-expressing N. gonorrhoeae, competitor added simultaneously
Protocol: (§2) Fluorometric adherence assays were performed essentially as described previously ([36]). In brief, N. gonorrhoeae MS11 gfp was used to challenge (1 h) Pex or CHO cells simultaneously with peptide or drug competitor. Infected (devoid of peptide or drug) and uninfected (with peptide, drug, or dimethyl sulfoxide [DMSO] vehicle) control cell assays were treated in parallel with competitive peptide/drug inhibition assays. Fluorescence (485 nm excitation, 528 nm emission) intensity, corresponding to bacterial adherence, was recorded using a Synergy HT multimode microplate reader (BioTek Instruments, Winooski, VT, USA). Blank wells, devoid of Pex or CHO cells, were inoculated with bacteria and served as a control for nonspecific binding. Each assay was performed in triplicates on 3 separate occasions. Peptides used are described in Table S1. A nonparametric analysis of variance (ANOVA) was used to determine the statistical significance of the calculated mean of bacterial adherence.

[3] = tested on: N. gonorrhoeae adherence to CHO-CR3 cells; assay: Fluorometric adherence assay, CHO-CR3 cells; assay type: cell-based, Chinese hamster; details: 1-h infection with GFP-expressing N. gonorrhoeae, competitor added simultaneously
Protocol: as §2

[4] = molecular target: T3, human rCR3 (integrin αMβ2) (Homo sapiens, UniProt P11215); assay: Surface plasmon resonance, immobilized human rCR3; assay type: binding
T3 construct: purchased R&D Systems
Protocol: as §1

G2 peptide = molecular target: T4, G2 peptide (Homo sapiens, UniProt P11215); assay: SPR of glycans over immobilized biotin-AhxG2-streptavidin complex; assay type: binding; details: for KD, G2 Peptide: synthetic glycans over biotin-Ahx-labeled G2 peptide complexed with streptavidin, NCDI = no concentration-dependent interaction
T4 construct: corresponds to amino acids Arg197 to Pro211 of human CD11b
Protocol: To assess the kinetics of the selected peptides, biotinylated versions of each peptide were synthesized. This enabled immobilization via streptavidin onto Series S CM5 sensor chips. Purified biotin-AhxG2 (G2 peptide with a six-carbon spacer linked to biotin) (Table S1), was incubated with streptavidin (Sigma, Castle Hill, NSW, Australia) for 2 h on ice at a 12:1 molar ratio of peptide to protein. Unreacted peptide was removed using a 10-kDa-molecular-weight-cutoff size exclusion column (EMD Millipore, Bayswater, VIC, Australia). Semi-native SDS-PAGE analysis was used to confirm peptide binding to streptavidin. To this end, streptavidin-peptide complexes were added to nonreducing NuPAGE sample buffer (Life Technologies, Scoresby, VIC, Australia). To ensure that peptide-streptavidin complexes were not denatured, heat was not applied before loading onto SDS-polyacrylamide 4% to 12% gradient gels (Life Technologies). A streptavidin-biotin complex was used as a reference control for the molecular weight shift that could be attributed to the peptide. Serially diluted glycans (1 μM to 0.0625 μM) were flowed over sensor chips. Other aspects of SPR analysis were as described above.

[5] = synthetic glycans, NCDI = no interaction at any concentration between 0.0078 μM and 2 μM, read-out: KD, rI-domain
[6] = synthetic glycans, NCDI = no interaction at any concentration between 0.0078 μM and 2 μM, read-out: KD, rCR3
[7] = synthetic glycans, NCDI = no interaction at any concentration between 0.0078 μM and 2 μM

T2 sequence (P05107 23-700, one chain of several): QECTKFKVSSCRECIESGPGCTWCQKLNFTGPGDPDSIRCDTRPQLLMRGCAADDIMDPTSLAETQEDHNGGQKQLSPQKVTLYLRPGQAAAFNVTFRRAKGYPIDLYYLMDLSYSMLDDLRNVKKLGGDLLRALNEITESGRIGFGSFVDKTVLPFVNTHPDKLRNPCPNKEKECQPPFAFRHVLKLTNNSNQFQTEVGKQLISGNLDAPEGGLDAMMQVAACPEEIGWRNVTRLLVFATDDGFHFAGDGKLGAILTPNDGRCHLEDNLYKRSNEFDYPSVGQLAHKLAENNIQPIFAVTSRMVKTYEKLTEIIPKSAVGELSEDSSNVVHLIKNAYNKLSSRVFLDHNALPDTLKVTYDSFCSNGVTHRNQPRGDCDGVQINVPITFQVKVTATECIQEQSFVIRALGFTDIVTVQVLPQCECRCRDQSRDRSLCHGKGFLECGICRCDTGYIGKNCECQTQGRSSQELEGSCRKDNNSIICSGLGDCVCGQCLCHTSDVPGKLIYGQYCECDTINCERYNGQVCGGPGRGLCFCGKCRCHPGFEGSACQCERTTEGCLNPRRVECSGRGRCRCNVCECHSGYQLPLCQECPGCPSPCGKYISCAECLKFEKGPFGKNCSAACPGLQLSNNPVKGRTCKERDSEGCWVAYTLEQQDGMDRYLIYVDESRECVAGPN

CC(=O)NC1C(O)OC(CO)C(OC2OC(CO)C(OC3OC(CO)C(O)C(O)C3O)C(O)C2O)C1O (stereo not shown) [P1 Antigen]
Kd (human rI-domain; [5]): 0.202 ± 0.0487 µM
Kd [1, 6]: 0.0483 ± 0.0142 µM

H-CATFTAPGRTSTFSF-OH [P2, H-CATFTAPGRTSTFSF-OH]
Gonococcal adherence to Pex cells (fluorescence) [2]: nonblocking
Gonococcal adherence to CHO-CR3 cells (fluorescence) [3]: nonblocking

OC[C@H]1O[C@@H](O[C@H]2[C@H](O)[C@@H](O)[C@H](O)O[C@@H]2CO)[C@H](O)[C@@H](O)[C@H]1O [Lactose]
Kd (human rI-domain; [5]): 0.117 ± 0.0133 µM
Kd [1, 6]: 0.138 ± 0.0337 µM

CC(=O)NC1C(O)OC(CO)C(OC2OC(CO)C(O)C(OC3OC(CO)C(O)C(O)C3O)C2O)C1O (stereo not shown) [Linear B-2 Trisaccharide]
Kd (human rI-domain; [5]): 0.293 ± 0.0131 µM
Kd [1, 6]: 0.0448 ± 0.0181 µM

MS11 wild type: N. gonorrhoeae MS11 pilin modified with the Gal(α1-3)diNAcBac disaccharide glycan
Kd ([4]; purified pilin 0.125-2 μM, NCDI = no concentration-dependent interaction (no binding of ≤2 μM), read-out: KD, Human CR3): 0.907 ± 0.0438 µM

OC[C@H]1O[C@@](CO)(O[C@H]2O[C@H](CO)[C@@H](O)[C@H](O)[C@H]2O)[C@@H](O)[C@@H]1O [Sucrose]
KD, rI-domain (human rI-domain; [7]): did not bind and NCDI
KD, rCR3 [4, 7]: did not bind and NCDI
KD, G2 Peptide (G2 peptide): NCDI
KD, G2 Peptide (G2 peptide; listed as sucrose): no concentration-dependent interaction

OC[C@H]1O[C@@H](O[C@H]2[C@H](O)[C@@H](O)[C@@H](O)O[C@@H]2CO)[C@H](O)[C@@H](O)[C@H]1O [αLactose]
Kd (human rI-domain; [5]): 0.202 ± 0.0544 µM
Kd [1, 6]: 0.0798 ± 0.015 µM

H-CNNPSSTVPHNVDFH-OH [P1]
Gonococcal adherence to Pex cells (fluorescence) [2]: nonblocking
Gonococcal adherence to CHO-CR3 cells (fluorescence) [3]: nonblocking

CO[C@H]1O[C@H](CO)[C@H](O)[C@H](O)[C@H]1O [Methyl-α-D-galactose]
Kd (human rI-domain; [5]): 0.269 ± 0.0851 µM
Kd [1, 6]: 0.0565 ± 0.0198 µM
Kd (G2 peptide): 0.118 ± 0.0118 µM

OCC1OC(OC2C(O)C(O)OC(CO)C2O)C(O)C(O)C1O (stereo not shown) [Galactobiose]
Kd (human rI-domain): 0.229 ± 0.0731 µM
Kd [1]: 0.0687 ± 0.00175 µM
Kd (G2 peptide): 0.174 ± 0.0451 µM

OCC1OC(OC2C(O)C(CO)OC(OC3C(CO)OC(OC4C(O)C(O)OC(CO)C4O)C(O)C3O)C2O)C(O)C(O)C1O (stereo not drawn) [α1-3,β1-4,α1-3 Galactotetraose]
Kd (human rI-domain; [5]): 0.32 ± 0.0672 µM
Kd [4, 6]: 0.0262 ± 0.00918 µM
